# Measured values as given in ChEMBL document CHEMBL1909590, “Design, synthesis and docking studies of new quinoline-3-carbohydrazide derivatives as antitubercular agents” (2011).
# Key:
# Type in all cases: functional
# Pseudomonas aeruginosa = assay: Antibacterial activity against Pseudomonas aeruginosa ATCC 27853 after 18 to 25 hrs by serial plate dilution method
# [1] = tested on: Mycolicibacterium smegmatis; assay: Antimycobacterial activity against Mycobacterium smegmatis MC2 ATCC 19420 using compound level ranging from 1 to 100 ug/mL after 7 days by resazurin reduction test; details: MC2 ATCC 19420, 168 h
# Escherichia coli = assay: Antibacterial activity against Escherichia coli ATCC 25922 after 18 to 25 hrs by serial plate dilution method
# [2] = tested on: Mycobacterium tuberculosis; assay: Growth inhibition of Mycobacterium tuberculosis H37Rv ATCC 27294 using compound level ranging from 1 to 100 ug/mL after 7 days by resazurin reduction test
# Staphylococcus aureus = assay: Antibacterial activity against Staphylococcus aureus ATCC 25923 after 18 to 25 hrs by serial plate dilution method
# [3] = tested on: Mycolicibacterium fortuitum; assay: Antimycobacterial activity against Mycobacterium fortuitum ATCC 19542 using compound level ranging from 0.3125 to 5 ug/mL after 7 days by resazurin reduction test; details: ATCC 19542, 168 h
# [4] = tested on: Mycolicibacterium fortuitum; assay: Antimycobacterial activity against Mycobacterium fortuitum ATCC 19542 using compound level ranging from 1 to 100 ug/mL after 7 days by resazurin reduction test; details: ATCC 19542, 168 h
# [5] = tested on: Mycobacterium tuberculosis; assay: Antimycobacterial activity against Mycobacterium tuberculosis H37Rv ATCC 27294 using compound level ranging from 1 to 100 ug/mL after 7 days by resazurin reduction test; details: H37Rv ATCC 27294, 168 h
# [6] = tested on: Mycolicibacterium smegmatis; assay: Antimycobacterial activity against Mycobacterium smegmatis MC2 ATCC 19420 using compound level ranging from 0.3125 to 5 ug/mL after 7 days by resazurin reduction test; details: MC2 ATCC 19420, 168 h
# [7] = tested on: Mycobacterium tuberculosis; assay: Antimycobacterial activity against Mycobacterium tuberculosis H37Rv ATCC 27294 using compound level ranging from 0.3125 to 5 ug/mL after 7 days by resazurin reduction test; details: H37Rv ATCC 27294, 168 h
# Streptococcus pyogenes = assay: Antibacterial activity against Streptococcus pyogenes clinical isolate after 18 to 25 hrs by serial plate dilution method
# Klebsiella pneumoniae = assay: Antibacterial activity against Klebsiella pneumoniae clinical isolates after 18 to 25 hrs by serial plate dilution method
SMILES,MIC (Pseudomonas aeruginosa) [mg/L],MIC [1] [mg/L],MIC (Escherichia coli) [mg/L],growth inhibition (GI) [2] [%],MIC (Staphylococcus aureus) [mg/L],MIC [3] [mg/L],MIC [4] [mg/L],MIC [5] [mg/L],MIC [6] [mg/L],MIC [7] [mg/L],MIC (Streptococcus pyogenes) [mg/L],MIC (Klebsiella pneumoniae) [mg/L]
COc1ccc(/C=N/NC(=O)c2cnc3c(C(F)(F)F)cccc3c2O)cc1,0.8,10,0.4,90,0.8,10,10,1,10,1.25,0.4,0.8
Cc1ccc(NC(=S)NNC(=O)c2cnc3c(C(F)(F)F)cccc3c2O)cc1,6.25,> 100,12.5,0,1.6,,> 100,> 100,,,3.12,12.5
COc1ccc(/C=N/NC(=O)c2cnc3c(C(F)(F)F)cccc3c2O)c(F)c1,0.4,10,0.1,95,0.8,10,10,1,10,0.625,0.4,0.1
CSc1ccccc1/C=N/NC(=O)c1cnc2c(C(F)(F)F)cccc2c1O,3.12,> 100,6.25,0,1.6,,> 100,> 100,,,3.12,3.12
O=C(N/N=C/c1ccc2c(c1)CCO2)c1cnc2c(C(F)(F)F)cccc2c1O,3.12,> 100,12.5,0,1.6,,> 100,> 100,,,3.12,6.25
O=C(N/N=C/c1cc(F)ccc1O)c1cnc2c(C(F)(F)F)cccc2c1O,0.4,10,0.1,<90,0.8,10,10,10,10,2.5,0.8,0.1
O=C(N/N=C/c1ccncc1)c1cnc2c(C(F)(F)F)cccc2c1O,12.5,> 100,12.5,0,6.25,,> 100,> 100,,,12.5,6.25
O=C(NNC(=S)Nc1ccccc1F)c1cnc2c(C(F)(F)F)cccc2c1O,0.4,10,0.1,95,0.8,10,10,1,10,0.625,0.4,0.1
O=C(N/N=C/c1ccc(OC(F)(F)C(F)F)cc1)c1cnc2c(C(F)(F)F)cccc2c1O,6.25,10,6.25,<90,3.12,,> 100,10,10,5,12.5,3.12
COC(=O)Cc1cc(/C=N/NC(=O)c2cnc3c(C(F)(F)F)cccc3c2O)co1,12.5,> 100,3.12,<90,6.25,,> 100,10,,5,12.5,6.25
Cc1ccc(/C=N/NC(=O)c2cnc3c(C(F)(F)F)cccc3c2O)cc1,3.12,> 100,3.12,<90,1.6,,> 100,10,,10,3.12,0.8
COc1ccc(NC(=S)NNC(=O)c2cnc3c(C(F)(F)F)cccc3c2O)cc1,1.6,> 100,6.25,<90,1.6,,> 100,10,,5,0.8,3.12
NNC(=O)c1ccncc1 [ISONIAZID],,50,,95,,12.5,12.5,0.7,50,0.7,,
Cn1cccc1/C=N\NC(=O)c1cnc2c(C(F)(F)F)cccc2c1O,0.4,1,0.1,90,0.8,10,10,1,1.25,0.625,0.4,0.1
CCc1ccc(NC(=O)NNC(=O)c2cnc3c(C(F)(F)F)cccc3c2O)cc1,12.5,> 100,3.12,<90,6.25,,> 100,10,,12.5,12.5,6.25
Cn1nnc2cc(/C=N\NC(=O)c3cnc4c(C(F)(F)F)cccc4c3O)ccc21,1.6,> 100,0.4,<90,0.8,,> 100,10,,5,0.4,0.8
Cc1cc(C)cc(NC(=O)NNC(=O)c2cnc3c(C(F)(F)F)cccc3c2O)c1,3.12,> 100,3.12,<90,0.8,,> 100,10,,2.5,1.6,3.12
Cc1ccc(NC(=O)NNC(=O)c2cnc3c(C(F)(F)F)cccc3c2O)cc1,0.8,10,0.2,90,0.8,10,10,1,10,1.25,0.4,0.1
O=C(NNC(=O)c1cnc2c(C(F)(F)F)cccc2c1O)Nc1cccc(Cl)c1,1.6,> 100,3.12,<90,0.8,,> 100,10,,10,0.4,0.8
O=C(N/N=C/c1cnc[nH]1)c1cnc2c(C(F)(F)F)cccc2c1O,0.8,> 1000,0.2,90,0.8,10,10,1,,1.25,0.4,0.4
O=C(NNC(=S)Nc1cccnc1)c1cnc2c(C(F)(F)F)cccc2c1O,12.5,> 100,3.12,0,6.25,,> 100,> 100,,,12.5,6.25
O=C(O)c1cn(C2CC2)c2cc(N3CCNCC3)c(F)cc2c1=O [CIPROFLOXACIN],0.4,,,,1,,,,,,,
COc1ccc(/C=N/NC(=O)c2cnc3c(C(F)(F)F)cccc3c2O)cc1O,6.25,> 100,12.5,<90,1.6,,> 100,10,,10,1.6,12.5
O=C(NNC(=S)Nc1cccc(Cl)c1)c1cnc2c(C(F)(F)F)cccc2c1O,3.12,10,3.12,<90,0.8,,> 100,10,2.5,2.5,1.6,3.12
Cc1[nH]cnc1/C=N/NC(=O)c1cnc2c(C(F)(F)F)cccc2c1O,0.4,1,0.4,90,0.8,12.5,10,1,1.25,1.25,1.6,0.1
Cc1cccc2c(/C=N/NC(=O)c3cnc4c(C(F)(F)F)cccc4c3O)c[nH]c12,0.4,1,0.1,95,0.8,10,10,1,1.25,0.625,0.4,0.1
CO[C@H]1/C=C/O[C@@]2(C)Oc3c(C)c(O)c4c(O)c(c(/C=N/N5CCN(C)CC5)c(O)c4c3C2=O)NC(=O)/C(C)=C\C=C\[C@H](C)[C@H](O)[C@@H](C)[C@@H](O)[C@@H](C)[C@H](OC(C)=O)[C@@H]1C [RIFAMPIN],,1.5,,95,,1.5,1.5,0.5,1.5,0.5,,
